Experimental data: patent US12180187B2, “1-phenyl-5-azinylpyrazolyl-3-oxyalkyl acids and their use for controlling unwanted plant growth” (BAYER AKTIENGESELLSCHAFT, priority 2019, dated 2024)
“And” between values parts separate entries of the source, which are not always exact repeats. Equal values may be shown once.

Key:
[1] = tested on: STEME; experiment: Pre-emergence action at 320 g/ha against STEME; assay type: in vivo, Stellaria media; conditions: greenhouse, scored visually after about 3 weeks vs untreated controls, 100% = plants have died, 0% = like control plants
Procedure, shortened: (§1)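 Visual scoring in percent against untreated controls, about 3 weeks after treatment, where 100% means dead plants and 0% means no difference. Compounds were applied as aqueous suspension or emulsion (WP or EC, plus 0.5% additive) onto soil covering freshly sown seeds, at 600 l/ha water.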

[2] = tested on: LOLRI; experiment: Pre-emergence action against LOLRI, 1280 g/ha; assay type: in vivo, Lolium rigidum; conditions: visual scoring after about 3 weeks vs untreated controls, 100% = plants have died, 0% = like control plants; for pest or weed control at 1280 g/ha: Lolium rigidum, 504 h
Procedure, shortened: (§2)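 Weed seeds sown in sandy loam in pots, covered with soil; compound as WP or EC applied to soil surface as aqueous suspension/emulsion with 0.5% additive at 600 L/ha water. Greenhouse, good growth conditions; visual % damage vs untreated controls after about 3 weeks (100% = plants dead, 0% = like control).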

[3] = tested on: SETVI; experiment: Post-emergence action against SETVI, 1.28 kg/ha; assay type: in vivo, Setaria viridis; conditions: dosage 1280 g/ha, visual rating about 3 weeks after treatment vs untreated controls
Procedure, shortened: (§3)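 Greenhouse-grown weeds (sandy loam, twin-sown pots) were treated 2–3 weeks post-sowing at one leaf. The spray was an aqueous WP/EC preparation plus 0.5% additive, applied at 600 L/ha. Scoring was visual at ~3 weeks, 0–100% versus untreated controls.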

[4] = tested on: VERPE; experiment: Pre-emergence action against VERPE, 1280 g/ha; assay type: in vivo, Veronica persica; conditions: scored visually after about 3 weeks vs untreated controls (100% = plants have died); for pest or weed control at 1280 g/ha: Veronica persica, 504 h
Procedure, shortened: as §2

[5] = tested on: PHBPU; experiment: Post-emergence action at 320 g/ha against PHBPU; assay type: in vivo; conditions: visual rating about 3 weeks after treatment vs untreated controls
Procedure, shortened: (§4)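 Visual % activity vs untreated controls (0% = like control, 100% = plants dead), scored ~3 wk after treatment. Plants were grown in sandy loam in a greenhouse and sprayed on green parts at the one-leaf stage (2–3 wk post-sowing). Spray: WP or EC in water, 0.5% additive, 600 l/ha.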

[6] = tested on: PHBPU; experiment: Pre-emergence action at 320 g/ha against PHBPU; assay type: in vivo; conditions: visual scoring after about 3 weeks vs untreated controls
Procedure, shortened: as §1

[7] = tested on: ALOMY; experiment: Pre-emergence action against ALOMY, 1280 g/ha; assay type: in vivo, Alopecurus myosuroides; conditions: visual scoring after about 3 weeks vs untreated controls, 100% = plants have died, 0% = like control plants
Procedure, shortened: as §2

[8] = tested on: STEME; experiment: Post-emergence action against STEME, 1.28 kg/ha; assay type: in vivo, Stellaria media; conditions: dosage 1280 g/ha, visual rating about 3 weeks after treatment vs untreated controls (100% = plants died)
Procedure, shortened: as §3

[9] = tested on: HORMU; experiment: Post-emergence action at 320 g/ha against HORMU; assay type: in vivo, Hordeum murinum; conditions: visual rating about 3 weeks after treatment vs untreated controls
Source text: Accordingly, the compounds of the invention have good herbicidal action against a broad spectrum of weed grasses and broad-leaved weeds and are therefore suitable for controlling unwanted vegetation by the post-emergence method. • b) Seeds of monocotyledonous and dicotyledonous weeds and crop plants are placed in sandy loam in plastic or organic planting pots, covered with soil and cultivated in a greenhouse under controlled growth conditions. 2 to 3 weeks after sowing, the test plants are treated at the one-leaf stage. The compounds of the invention, formulated in the form of wettable powders (WP) or as emulsion concentrates (EC), are then sprayed onto the green parts of the plants as aqueous suspension or emulsion with addition of 0.5% additive at a water application rate of 600 l/ha (converted). After the test plants have been kept in the greenhouse under optimum growth conditions for about 3 weeks, the activity of the preparations is rated visually in comparison to untreated controls. For example, 100% activity=the plants have died, 0% activity=like control plants. Tables 39 to 49 below show the effects of selected compounds of the general formula (I) according to Tables 1 and 2 on various harmful plants and at an application rate corresponding to 320 g/ha, which were obtained by the experimental procedure mentioned above.

[10] = tested on: ECHCG; experiment: Post-emergence action at 320 g/ha against ECHCG; assay type: in vivo, Echinochloa crus-galli; conditions: dosage 320 g/ha, visual rating about 3 weeks after treatment vs untreated controls (100% = plants died)
Procedure, shortened: as §4

[11] = tested on: DIGSA; experiment: Pre-emergence action against DIGSA, 1280 g/ha; assay type: in vivo, Digitaria sanguinalis; conditions: visual scoring after about 3 weeks vs untreated controls, 100% = plants have died, 0% = like control plants
Procedure, shortened: as §2

[12] = tested on: AMARE; experiment: Post-emergence action against AMARE, 1.28 kg/ha; assay type: in vivo, Amaranthus retroflexus; conditions: dosage 1280 g/ha, visual rating about 3 weeks after treatment vs untreated controls (100% = plants died)
Procedure, shortened: as §3

[13] = tested on: ABUTH; experiment: Post-emergence action at 320 g/ha against ABUTH; assay type: in vivo, Abutilon theophrasti; conditions: visual rating about 3 weeks after treatment vs untreated controls
Procedure, shortened: as §4

[14] = tested on: AVEFA; experiment: Post-emergence action at 320 g/ha against AVEFA; assay type: in vivo; conditions: visual rating about 3 weeks after treatment vs untreated controls; for pest or weed control at 320 g/ha: Avena fatua, 504 h
Procedure, shortened: as §4

[15] = tested on: VIOTR; experiment: Post-emergence action at 320 g/ha against VIOTR; assay type: in vivo, Viola tricolor; conditions: visual rating about 3 weeks after treatment vs untreated controls; for pest or weed control at 320 g/ha: Viola tricolor, 504 h
Procedure, shortened: as §4

[16] = tested on: DIGSA; experiment: Post-emergence action at 320 g/ha against DIGSA; assay type: in vivo, Digitaria sanguinalis; conditions: dosage 320 g/ha, visual rating about 3 weeks after treatment vs untreated controls (100% = plants died); for pest or weed control at 320 g/ha: Digitaria sanguinalis, 504 h
Procedure, shortened: as §4

[17] = tested on: KCHSC; experiment: Post-emergence action against KCHSC, 1.28 kg/ha; assay type: in vivo, Bassia scoparia; conditions: dosage 1280 g/ha, visual rating about 3 weeks after treatment vs untreated controls (100% = plants died)
Procedure, shortened: as §3

Row | SMILES | Pre-emergence action at 320 g/ha against STEME in % [1] | pest or weed control at 1280 g/ha [2] | Post-emergence action against SETVI [3] | pest or weed control at 1280 g/ha [4] | Post-emergence action against PHBPU in % [5] | Pre-emergence action against PHBPU in % [6] | Pre-emergence action against ALOMY [7] | Post-emergence action against STEME [8] | Post-emergence action against HORMU in % [9] | Post-emergence action at 320 g/ha against ECHCG in % [10] | Pre-emergence action against DIGSA [11] | Post-emergence action against AMARE [12] | Post-emergence action against ABUTH in % [13] | pest or weed control at 320 g/ha [14] | pest or weed control at 320 g/ha [15] | pest or weed control at 320 g/ha [16] | Post-emergence action against KCHSC [17] | other results
1 | O=C(O)COc1nn(-c2ccccc2F)c(-c2ccc(F)nc2)c1Br [VII-003, {[4-Bromo-1-(2-fluorophenyl)-5-(6-fluoropyridin-3-yl)-1H-pyrazol-3-yl]oxy}acetic acid] | 90% | 100% | 90% | 90% | 90% | 90% | 90% | 100% | 90% | 90% | 100% | 100% | 80% | 80% | 90% | 90% |  | 
2 | CCOC(=O)COc1nn(-c2ccccc2F)c(-c2ccc(F)nc2)c1Br [VII-012, Ethyl {[4-bromo-1-(2-fluorophenyl)-5-(6-fluoropyridin-3-yl)-1H-pyrazol-3-yl]oxy}acetate] | 100% | 100% | 100% and 90% | 100% | 90% and 80% | 90% and 80% | 100% and 90% | 100% | 90% | 90% | 100% | 100% and 90% | 80% | 90% | 90% | 80% | 90% | 
3 | CCOC(=O)C(C)Oc1nn(-c2ccccc2F)c(-c2ccc(F)nc2)c1Br (centres unmarked) [VII-019] | 90% |  | 90% |  | 90% | 90% | 90% | 100% | 100% | 90% | 100% | 90% | 80% |  |  |  | 90% | Pre-emergence action against LOLRI [2]: 100%; Pre-emergence action against VERPE [4]: 100%; Post-emergence action against AVEFA in % [14]: 100%; Post-emergence action against VIOTR in % [15]: 90%; Post-emergence action at 320 g/ha against DIGSA in % [16]: 90%
